Counter-ions that a name gives are not always drawn.
Molecular target: T1, recombinant guanylate cyclase reporter cell line (Rattus norvegicus, UniProt P20595)
T1 construct: expressed in transfected cells
T1 sequence (P20595 1-619): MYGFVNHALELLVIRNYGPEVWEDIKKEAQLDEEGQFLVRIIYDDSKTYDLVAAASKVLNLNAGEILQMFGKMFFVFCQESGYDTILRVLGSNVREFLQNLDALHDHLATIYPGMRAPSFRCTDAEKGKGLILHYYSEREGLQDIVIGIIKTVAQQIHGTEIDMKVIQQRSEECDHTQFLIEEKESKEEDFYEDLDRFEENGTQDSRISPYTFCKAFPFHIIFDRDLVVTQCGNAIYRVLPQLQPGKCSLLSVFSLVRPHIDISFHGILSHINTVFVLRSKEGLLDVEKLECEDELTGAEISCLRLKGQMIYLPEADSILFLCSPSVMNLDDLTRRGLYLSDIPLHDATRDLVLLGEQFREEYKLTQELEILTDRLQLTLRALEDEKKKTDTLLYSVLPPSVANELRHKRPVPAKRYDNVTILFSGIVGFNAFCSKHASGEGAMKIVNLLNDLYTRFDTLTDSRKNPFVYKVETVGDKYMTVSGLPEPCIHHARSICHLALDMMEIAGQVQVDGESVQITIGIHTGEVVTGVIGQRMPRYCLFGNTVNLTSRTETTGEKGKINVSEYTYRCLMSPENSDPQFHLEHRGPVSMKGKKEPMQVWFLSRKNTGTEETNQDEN
T1 sequence (P19686 1-690 partner): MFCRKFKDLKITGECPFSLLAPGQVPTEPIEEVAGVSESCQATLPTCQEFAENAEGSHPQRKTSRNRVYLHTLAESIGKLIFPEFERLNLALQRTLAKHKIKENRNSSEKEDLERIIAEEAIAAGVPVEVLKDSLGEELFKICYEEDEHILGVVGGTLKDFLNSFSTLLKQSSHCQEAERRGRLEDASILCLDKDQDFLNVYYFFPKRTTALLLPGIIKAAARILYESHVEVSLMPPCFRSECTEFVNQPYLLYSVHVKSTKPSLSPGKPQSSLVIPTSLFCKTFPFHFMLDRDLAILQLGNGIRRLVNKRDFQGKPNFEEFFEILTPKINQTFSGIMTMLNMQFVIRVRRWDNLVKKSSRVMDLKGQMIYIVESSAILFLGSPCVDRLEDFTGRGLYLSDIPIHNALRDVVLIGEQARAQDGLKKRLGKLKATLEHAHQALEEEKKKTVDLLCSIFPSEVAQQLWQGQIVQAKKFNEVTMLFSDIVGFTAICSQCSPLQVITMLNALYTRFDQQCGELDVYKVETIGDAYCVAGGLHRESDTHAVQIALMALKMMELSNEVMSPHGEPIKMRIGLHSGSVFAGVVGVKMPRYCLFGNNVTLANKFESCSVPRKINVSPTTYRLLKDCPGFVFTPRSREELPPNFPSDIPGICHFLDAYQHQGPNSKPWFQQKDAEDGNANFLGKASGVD
Assay: Effect on a recombinant guanylate cyclase reporter cell line
Assay type: cell-based
Conditions: for EC50: half maximal effective concentration; for MEC: minimum effective concentration
Description: B-1. Effect on a Recombinant Guanylate Cyclase Reporter Cell Line
The cellular activity of the compounds according to the invention was determined using a recombinant guanylate cyclase reporter cell line, as described in F. Wunder et al., Anal. Biochem. 339, 104-112 (2005).

| Compound | EC50 | MEC |
| --- | --- | --- |
| O=C(O)c1cnn(C2CCCN(c3cc(Cl)ccc3-c3ccc(N4CCN(CC5CC5C(F)(F)F)CC4)cc3)C2)c1C(F)F (mixture of isomers) [Example 38, 1-{1-[4-Chloro-4′-(4-{[cis-2-(trifluoromethyl)cyclopropyl]methyl}piperazin-1-yl) [biphenyl]-2-yl]piperidin-3-yl}-5-(difluoromethyl)-1H-pyrazole-4-carboxylic acid hydrochloride (Diastereoisomeric Mixture 1)] | 7.1 nM | 1.0 nM |
| O=C(O)c1cnn(C2CCCN(c3cc(Cl)ccc3-c3ccc(N4CCN(CC5CC(F)(F)C5)CC4)cc3)C2)c1C(F)F (single isomer, unassigned; enantiomer 1) [Example 15, 1-[1-(4-Chloro-4′-{4-[(3,3-difluorocyclobutyl)methyl]piperazin-1-yl}[biphenyl]-2-yl)piperidin-3-yl]-5-(difluoromethyl)-1H-pyrazole-4-carboxylic acid hydrochloride (Enantiomer 1)] | 6.7 nM | 0.6 nM |
| O=C(O)c1cnn(C2CCCN(c3cc(Cl)ccc3-c3ccc(N4CCN(CCC(F)(F)F)CC4)nc3)C2)c1C(F)F (single isomer, unassigned; enantiomer 1) [Example 66, 1-[1-(5-Chloro-2-{6-[4-(3,3,3-trifluoropropyl)piperazin-1-yl]pyridin-3-yl}phenyl)piperidin-3-yl]-5-(difluoromethyl)-1H-pyrazole-4-carboxylic acid hydrochloride (Enantiomer 1)] | < 1 nM | <0.3 nM |
| O=C(O)c1cnn(C2CCCN(c3cc(Cl)ccc3-c3ccc(N4CCN(CC5CC5(F)F)CC4)cc3)C2)c1C(F)F (mixture of isomers) [Example 27, 1-{1-[4-Chloro-4′-(4-{[2,2-difluorocyclopropyl]methyl}piperazin-1-yl)[biphenyl]-2-yl]piperidin-3-yl}-5-(difluoromethyl)-1H-pyrazole-4-carboxylic acid hydrochloride (Diastereomeric mixture 2)] | 2.8 nM | 0.3 nM |
| O=C(O)c1cnn(C2CCCN(c3cc(Cl)ccc3-c3ccc(C4CN(CCC(F)(F)F)C4)cc3)C2)c1C(F)F (single isomer, unassigned; enantiomer 2) [Example 59, 1-(1-{4-Chloro-4′-[1-(3,3,3-trifluoropropyl)azetidin-3-yl][biphenyl]-2-yl}piperidin-3-yl)-5-(difluoromethyl)-1H-pyrazole-4-carboxylic acid hydrochloride (Enantiomer 2)] | 8.7 nM | 3.0 nM |
| O=C(O)c1cnn(C2CCCN(c3cc(Cl)ccc3-c3ccc(N4CCN(CC(F)(F)F)CC4)nc3)C2)c1C(F)F (single isomer, unassigned; enantiomer 1) [Example 64, 1-[1-(5-Chloro-2-{6-[4-(2,2,2-trifluoroethyl)piperazin-1-yl]pyridin-3-yl}phenyl)piperidin-3-yl]-5-(difluoromethyl)-1H-pyrazole-4-carboxylic (Enantiomer 1)] | 1.9 nM | 1.0 nM |
| CCN1CCN(c2ccc(-c3ccc(Cl)cc3N3CCCC(n4ncc(C(=O)O)c4C(F)F)C3)cn2)CC1 (single isomer, unassigned; enantiomer 2) [Example 60, 1-(1-{5-Chloro-2-[6-(4-ethylpiperazin-1-yl)pyridin-3-yl]phenyl}piperidin-3-yl)-5-(difluoromethyl)-1H-pyrazole-4-carboxylic acid hydrochloride (Enantiomer 2)] | 70 nM | 30.0 nM |
| O=C(O)c1cnn(C2CCCN(c3cc(Cl)ccc3-c3ccc(N4CCN(CC5(F)CCC5)CC4)cc3)C2)c1C(F)F (single isomer, unassigned; enantiomer 2) [Example 16, 1-[1-(4-Chloro-4′-{4-[(1-fluorocyclobutyl)methyl]piperazin-1-yl}[biphenyl]-2-yl)piperidin-3-yl]-5-(difluoromethyl)-1H-pyrazole-4-carboxylic acid hydrochloride (Enantiomer 2)] | 2.6 nM | 0.3 nM |
| CC(C)N1CCN(c2ccc(-c3ccc(Cl)cc3N3CCCC(n4ncc(C(=O)O)c4C(F)F)C3)cc2)CC1 (single isomer, unassigned; enantiomer 2) [Example 7, 1-{1-[4-Chloro-4′-(4-isopropylpiperazin-1-yl)[biphenyl]-2-yl]piperidin-3-yl}-5-(difluoromethyl)-1H-pyrazole-4-carboxylic acid hydrochloride (Enantiomer 2)] | 43.3 nM | 10.0 nM |
| O=C(O)c1cnn(C2CCCN(c3cc(Cl)ccc3-c3ccc(N4CCN(C5CC5)CC4)cc3)C2)c1C(F)F (single isomer, unassigned; enantiomer 2) [Example 9, 1-{1-[4-Chloro-4′-(4-cyclopropylpiperazin-1-yl)[biphenyl]-2-yl]piperidin-3-yl}-5-(difluoromethyl)-1H-pyrazole-4-carboxylic acid hydrochloride (Enantiomer 2)] | 36.5 nM | 3.0 nM |
| O=C(O)c1cnn(C2CCCN(c3cc(Cl)ccc3-c3ccc(N4CCN(CC(F)F)CC4)cc3)C2)c1C(F)F (single isomer, unassigned; enantiomer 1) [Example 18, 1-[1-{4-Chloro-4′-[4-(2,2-difluoroethyl)piperazin-1-yl][biphenyl]-2-yl}piperidin-3-yl]-5-(difluoromethyl)-1H-pyrazole-4-carboxylic acid hydrochloride (Enantiomer 1)] | < 1 nM | 0.3 nM |
| CC(C)C(=O)N1CCN(c2ccc(-c3ccc(Cl)cc3N3CCCC(n4ncc(C(=O)O)c4C(F)F)C3)cc2)CC1 (single isomer, unassigned; enantiomer 2) [Example 48, 1-{1-[4-Chloro-4′-(4-isobutyrylpiperazin-1-yl)[biphenyl]-2-yl]piperidin-3-yl}-5-(difluoromethyl)-1H-pyrazole-4-carboxylic acid (Enantiomer 2)] | 7.5 nM | 3.0 nM |

From US20240101528A1, “SUBSTITUTED PYRAZOLO PIPERIDINE CARBOXYLIC ACIDS” (BAYER AKTIENGESELLSCHAFT, priority 2020, published 2024)
